This is an account of results in patent US8207172B2 (Bayer Intellectual Property GmbH, priority 2004, dated 2012).

Where a name gives a salt, the structure may show the parent alone. A value given as a limit tells only on which side of the number the result lay.

Experiment [1] concerns A431 cells (human epidermoid carcinoma). As to the kind of experiment: In vitro tumor cell proliferation assay (Cell Titer-Glo luminescent cell viability), A431. Conditions: A-431, 72 h, 72 hours of drug exposure, ATP luminescence readout, read-out: IC50, anti-proliferative activity (inhibition of cell proliferation). Format: cell-based. The gist of the method:
(§1)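 A431 or BT474 cells were exposed 72 h at 37°C to serially diluted compounds (final 100 μM down to 64 pM, 0.1% DMSO). Viable cells were read by ATP luminescence (CellTiter-Glo) and IC50 values derived.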
(In ATP-based viability assays light output follows the ATP content of the culture.)

Experiment [2] concerns BT474 (human breast carcinoma). As to the kind of experiment: In vitro tumor cell proliferation assay (Cell Titer-Glo luminescent cell viability), BT474. Format: cell-based. Conditions: BT-474, 72 h, BT474 cells, 72 hours of drug exposure, ATP luminescence readout, read-out: IC50, anti-proliferative activity (inhibition of cell proliferation). Put shortly: as §1

Turning to `COCCNC[C@@H](O)Cn1ncc2c1CCc1c-2sc2ncnc(Nc3ccc(OCc4cccc(F)c4)c(Cl)c3)c12` [Example 173, (2R)-1-[6-({3-chloro-4-[(3-fluorobenzyl)oxy]phenyl}amino)-4,5-dihydro-3H-pyrimido[5′,4′:4,5]thieno[2,3-e]indazol-3-yl]-3-[(2-methoxyethyl)amino]propan-2-ol trifluoroacetate (salt)], the figures for the IC50 in experiment [1] and in experiment [2] were at most 5 µM and at most 1 µM, respectively.
For `CCN1CCC(Cn2cc3c(n2)CCc2c-3sc3ncnc(Nc4ccc(OCc5cccc(F)c5)c(Cl)c4)c23)CC1` [Example 244, N-{3-chloro-4-[(3-fluorobenzyl)oxy]phenyl}-2-[(1-ethylpiperidin-4-yl)methyl]-4,5-dihydro-2H-pyrimido[5′,4′:4,5]thieno[2,3-e]indazol-6-amine] the same measures were at most 5 µM and at most 1 µM.
For `CN(C)C1CCN(C(=O)Cn2ncc3c2CCc2c-3sc3ncnc(Nc4ccc(OCc5cccc(F)c5)c(Cl)c4)c23)C1` (stereo in doubt) [Example 208, N-{3-chloro-4-[(3-fluorobenzyl)oxy]phenyl}-3-{2-[(3S)-3-(dimethylamino)pyrrolidin 1-yl]-2-oxoethyl}-4,5-dihydro-3H-pyrimido[5′,4′:4,5]thieno[2,3-e]indazol-6-amine] the same measures were at most 5 µM and at most 1 µM.
Take `C#Cc1cccc(Nc2ncnc3sc4c(c23)CCc2nn(CCN3CCN(C)CC3)cc2-4)c1` [Example 51, N-(3-ethynylphenyl)-2-[2-(4-methylpiperazin-1-yl)ethyl]-4,5-dihydro-2H-pyrimido[5′,4′:4,5]thieno[2,3-e]indazol-6-amine]: the figures for the IC50 in experiment [1] and in experiment [2] were at most 5 µM and at most 50 µM, respectively.
For `CC(C)(C)OC(=O)N1CCC(Cn2cc3c(n2)CCc2c-3sc3ncnc(Nc4ccc(OCc5cccc(F)c5)c(Cl)c4)c23)CC1` [Example 231, tert-butyl 4-{[6-({3-chloro-4-[(3-fluorobenzyl)oxy]phenyl}amino)-4,5-dihydro-2H-pyrimido[5′,4′:4,5]thieno[2,3-e]indazol-2-yl]methyl}piperidine-1-carboxylate] the same measures were at most 50 µM and at most 5 µM.
On the same counts, the results for `Fc1cccc(COc2ccc(Nc3ncnc4sc5c(c34)CCc3c-5cnn3CCCN3CCCCC3)cc2Cl)c1` [Example 273] are at most 5 µM and at most 1 µM.
For `CC(C)(C)OC(=O)NCC(=O)OCCn1cc2c(n1)CCc1c-2sc2ncnc(Nc3ccc(OCc4cccc(F)c4)c(Cl)c3)c12` [Example 314, 2-[6-({3-chloro-4-[(3-fluorobenzyl)oxy]phenyl}amino)-4,5-dihydro-2H-pyrimido[5′,4′:4,5]thieno[2,3-e]indazol-2-yl]ethyl N-(tert-butoxycarbonyl)glycinate] the same measures were at most 5 µM and at most 1 µM.
Take `CN1CCC(Cn2cc3c(n2)CCc2c-3sc3ncnc(Nc4ccc(OCc5cccc(F)c5)c(Cl)c4)c23)CC1` [Example 236, N-{3-chloro-4-[(3-fluorobenzyl)oxy]phenyl}-2-[(1-methylpiperidin-4-yl)methyl]-4,5-dihydro-2H-pyrimido[5′,4′:4,5]thieno-[2,3-e]indazol-6-amine]: the IC50 in experiment [1] was at most 5 µM; in experiment [2] it was at most 1 µM.
Turning to `C=CCn1ncc2c1CCc1c-2sc2ncnc(Nc3ccc(OCc4cccc(F)c4)c(Cl)c3)c12` [Example 129, 3-allyl-N-{3-chloro-4-[(3-fluorobenzyl)oxy]phenyl}-4,5-dihydro-3H-pyrimido[5′,4′:4,5]thieno[2,3-e]indazol-6-amine], the IC50 in experiment [1] is at most 50 µM; in experiment [2], at most 1 µM.
On the same counts, the results for `OCCn1cc2c(n1)CCc1c-2sc2ncnc(Nc3ccc4c(cnn4Cc4cccc(F)c4)c3)c12` [Example 275, 2-(6-{[1-(3-fluorobenzyl)-1H-indazol-5-yl]amino}-4,5-dihydro-2H-pyrimido[5′,4′:4,5]thieno[2,3-e]indazol-2-yl)ethanol] are at most 5 µM and at most 1 µM.
On the same counts, the results for `OCCn1cc2c(n1)CCc1c-2sc2ncnc(Nc3ccc4c(cnn4Cc4ccccc4)c3)c12` [Example 302, 2-{6-[(1-benzyl-1H-indazol-5-yl)amino]-4,5-dihydro-2H-pyrimido[5′,4′:4,5]thieno[2,3-e]indazol-2-yl}ethanol] are at most 5 µM and at most 1 µM.
On the same counts, the results for `Fc1ccc(Nc2ncnc3sc4c(c23)CCc2nn(CCn3ccnc3)cc2-4)cc1Cl` [Example 12, N-(3-chloro-4-fluorophenyl)-2-[2-(1H-imidazol-1-yl)ethyl]-4,5-dihydro-2H-pyrimido[5′,4′:4,5]thieno[2,3-e]indazol-6-amine] are at most 5 µM and at most 5 µM.
Take `CCN1CCN(CCn2cc3c(n2)CCc2c-3sc3ncnc(Nc4ccc(OCc5cccc(F)c5)c(Cl)c4)c23)CC1` [Example 121, N-{3-chloro-4-[(3-fluorobenzyl)oxy]phenyl}-2-[2-(4-ethylpiperazin-1-yl)ethyl]-4,5-dihydro-2H-pyrimido[5′,4′:4,5]thieno[2,3-e]indazol-6-amine]: the IC50 is at most 5 µM in experiment [1] and at most 1 µM in experiment [2].
For the molecule `OC[C@H]1CCCN1CCn1cc2c(n1)CCc1c-2sc2ncnc(Nc3ccc(F)c(Cl)c3)c12` [Example 29, [(2R)-1-(2-{6-[(3-chloro-4-fluorophenyl)amino]-4,5-dihydro-2H-pyrimido[5′,4′:4,5]thieno[2,3-e]indazol-2-yl}ethyl)pyrrolidin-2-yl]methanol], the IC50 in experiment [1] and in experiment [2] was at most 5 µM each time.
On to `CCCN(CCOC)CCn1cc2c(n1)CCc1c-2sc2ncnc(Nc3ccc(F)c(Cl)c3)c12` [Example 23, N-(3-chloro-4-fluorophenyl)-2-{2-[(2-methoxyethyl)(propyl)amino]ethyl}-4,5-dihydro-2H-pyrimido[5′,4′:4,5]thieno[2,3-e]indazol-6-amine], for which the IC50 in experiment [1] and in experiment [2] was at most 5 µM in each case.
In the case of `Cc1cccc(COc2ccc(Nc3ncnc4sc5c(c34)CCc3nn(CCOS(C)(=O)=O)cc3-5)cc2Cl)n1` [Example 116, 2-[6-({3-chloro-4-[(6-methylpyridin-2-yl)methoxy]phenyl}amino)-4,5-dihydro-2H-pyrimido[5′,4′:4,5]thieno[2,3-e]indazol-2-yl]ethyl methanesulfonate], the IC50 was at most 50 µM in experiment [1] and at most 5 µM in experiment [2].
On the same counts, the results for `Fc1cccc(COc2ccc(Nc3ncnc4sc5c(c34)CCc3n[nH]cc3-5)cc2Cl)c1` [Example 74, N-{3-chloro-4-[(3-fluorobenzyl)oxy]phenyl}-4,5-dihydro-2H-pyrimido[5′,4′:4,5]thieno[2,3-e]indazol-6-amine] are at most 5 µM and at most 1 µM.
Turning to `CC(C)c1nccn1CCn1cc2c(n1)CCc1c-2sc2ncnc(Nc3ccc(F)c(Cl)c3)c12` [Example 42, N-(3-chloro-4-fluorophenyl)-2-[2-(2-isopropyl-1H-imidazol-1-yl)ethyl]-4,5-dihydro-2H-pyrimido[5′,4′:4,5]thieno[2,3-e]indazol-6-amine], the IC50 in experiment [1] and in experiment [2] was at most 5 µM throughout.
For the molecule `CS(=O)(=O)OCCn1ncc2c1CCc1c-2sc2ncnc(Nc3ccc(OCc4cccc(F)c4)c(Cl)c3)c12` [Example 258, 2-[6-({3-chloro-4-[(3-fluorobenzyl)oxy]phenyl}amino)-4,5-dihydro-3H-pyrimido[5′,4′:4,5]thieno[2,3-e]indazol-3-yl]ethyl methanesulfonate], the IC50 is at most 5 µM in experiment [1] and at most 1 µM in experiment [2].
For `O=C(CN1CCNCC1)N1CCC(n2cc3c(n2)CCc2c-3sc3ncnc(Nc4ccc(OCc5cccc(F)c5)c(Cl)c4)c23)CC1` [Example 221, N-{3-chloro-4-[(3-fluorobenzyl)oxy]phenyl}-2-[1-(piperazin-1-ylacetyl)piperidin-4-yl]-4,5-dihydro-2H-pyrimido[5′,4′:4,5]thieno[2,3-e]indazol-6-amine] the same measures were at most 50 µM and at most 1 µM.
Take `Cc1cccc(COc2ccc(Nc3ncnc4sc5c(c34)CCc3c-5cnn3CCN3CCN(C)CC3)cc2Cl)c1` [Example 320, N-{3-chloro-4-[(3-methylbenzyl)oxy]phenyl}-3-(2-(4-methylpiperazin-1-yl)ethyl]-4,5-dihydro-3H-pyrimido[5′,4′:4,5]thieno[2,3-e]indazol-6-amine trifluoroacetate]: the IC50 in experiment [1] and in experiment [2] was at most 5 µM in each case.
`OC[C@@H]1CCCN1CCn1cc2c(n1)CCc1c-2sc2ncnc(Nc3ccc(F)c(Cl)c3)c12` [Example 32, [(2S)-1-(2-{6-[(3-chloro-4-fluorophenyl)amino]-4,5-dihydro-2H-pyrimido[5′,4′:4,5]thieno[2,3-e]indazol-2-yl}ethyl)pyrrolidin-2-yl]methanol]: the IC50 in experiment [1] and in experiment [2] was at most 5 µM in each case.
In the case of `COCCNCCn1ncc2c1CCc1c-2sc2ncnc(Nc3ccc(OCc4ccccn4)c(Cl)c3)c12` [Example 113, N-[3-chloro-4-(pyridin-2-ylmethoxy)phenyl]-3-{2-[(2-methoxyethyl)amino]ethyl}-4,5-dihydro-3H-pyrimido[5′,4′:4,5]thieno[2,3-e]indazol-6-amine], the IC50 is at most 50 µM in experiment [1] and at most 1 µM in experiment [2].
For `CCN1CCN(C(=O)Cn2ncc3c2CCc2c-3sc3ncnc(Nc4ccc(OCc5cccc(F)c5)c(Cl)c4)c23)CC1` [Example 202, N-{3-chloro-4-[(3-fluorobenzyl)oxy]phenyl}-3-[2-(4-ethylpiperazin-1-yl)-2-oxoethyl]-4,5-dihydro-3H-pyrimido[5′,4′:4,5]thieno[2,3-e]indazol-6-amine] the same measures were at most 5 µM and at most 1 µM.
